{"source": "patent EP3046573B1", "about": "“AMYLIN ANALOGUES” (Zealand Pharma A/S, priority 2013, dated 2015)", "key": {"Male Sprague Dawley rats [1]": {"system": "Male Sprague Dawley rats", "assay": "Efficacy testing: development of obesity in rats fed on a high-fat diet (HFD)", "assay_type": "in vivo", "protocol": "(§1) Whole-blood glucose levels were determined on tail-vein blood samples by the Biosen (EKF Diagnostic, Germany) enzyme-based electrode method. Blood samples were analyzed for glycated hemoglobin (HbA1c) using a Cobas c111 analyzer (Roche Diagnostics, Mannheim, Germany). Plasma insulin levels were measured using a Meso Scale Discovery (MSD) system (Rockville, MD, USA). Liver fat content was determined by magnetic resonance (MR) scanning using an Echo systems MR scanner. Fat depots were measured by weighing of excised fat.\n(§2) Male Sprague Dawley rats obtained from Taconic A/S, Denmark, were used in this study. The animals arrived at least 7 days before the study start to allow acclimatization to experimental conditions. From arrival and throughout the study, the rats were housed in groups of 2 (n = 2) in a light-, temperature- and humidity-controlled room (reversed 12/12 h light/dark cycle: lights turned off during day-time and on during night-time; temperature 20-22°C; relative humidity 50-80%) and maintained on a HFD (60% of total energy from fat, D12492, Research Diet Inc., New Brunswick, USA) for 2 weeks. Animals had access ad libitum to water (domestic quality tap water with citric acid added to pH ∼ 3.6) during the entire study.The rats were stratified according to body weight (primary) and % body weight gain from the beginning of feeding with HFD (secondary), and treated for 4 weeks with Compound 18 [1, 5 and 30 nmol/kg sc, once weekly (QW)] and Compound 18 (5 nmol/kg sc, every 4th day), and with comparison/reference compounds NN96 (a pramlintide analogue, see Example 5; 30 nmol/kg sc, QW) and the marketed human GLP-1 receptor agonist liraglutide [50 nmol/kg sc, twice daily (bid)], respectively.\n(§3) Post-hoc Dunnett's multiple comparison tests were conducted. When appropriate, the two-way ANOVA test was used followed by Bonferroni post tests; p < 0.05 was in all cases considered statistically significant.\n(§4) The preventive effects of Compound 18 of the present invention on the development of obesity were investigated by measurement of body weight, food intake, water intake, blood glucose levels, plasma insulin levels, liver fat mass and fat depots."}, "[2]": {"system": "rats self-selecting between a low-fat diet and a high-fat diet", "assay": "Food preference (FP) and development of obesity in rats fed on a high-fat diet (HFD)", "assay_type": "in vivo, Male Sprague Dawley rats", "settings": "30 nmol/kg sc, QW, 4 weeks", "protocol": "as §1\n(§5) Male Sprague Dawley rats obtained from Taconic A/S, Denmark, were used in this study. The animals arrived at least 7 days before the study start to allow acclimatization to experimental conditions. From arrival and throughout the study, the rats were housed in groups of 2 (n = 2) in a light-, temperature- and humidity-controlled room (reversed 12/12 h light/dark cycle: lights turned off during day-time and on during night-time; temperature 20-22°C; relative humidity 50-80%) and maintained on a HFD (60% of total energy from fat, D12492, Research Diet Inc., New Brunswick, USA) for 2 weeks. Animals had access ad libitum to water (domestic quality tap water with citric acid added to pH ∼ 3.6) during the entire study. The rats were stratified according to body weight (primary) and % body weight gain from the beginning of feeding with HFD (secondary). Three days before the initiation of treatment the rats were allowed to self-select between a low-fat diet (LFD, standard chow, 11 % of total energy from fat, Atromin™ 1324, Brogaarden A/S, Gentofte, Denmark) and a high-fat diet, and they remained on the self-selected regimen for the duration of the study. Rats were treated for four weeks with Compound 18 [30 nmol/kg sc, once weekly (QW)] or vehicle.\nStatistical analyses were performed using GraphPad™ Prism version 5. […]"}, "[3]": {"system": "male Zucker diabetic fatty (ZDF) rats", "assay": "Efficacy testing: glycemic control in Zucker diabetic fatty rats", "assay_type": "in vivo", "settings": "for terminal HbA1c levels: 4 weeks, vehicle 8.7 ± 0.2; for non-fasting blood glucose levels on day 13 and on day 27: compared to the vehicle treated rats, P < 0.001; for fasting blood glucose levels: terminal, Compound 82 3, 30, and 100 nmol/kg, Compound 18 30 nmol/kg, P < 0.001 vs. vehicle", "protocol": "as §1\n84 male Zucker diabetic fatty (ZDF) rats (9-10 weeks of age) were used in this study. The animals were housed in groups of n = 2. Stratification of the animals was based on non-fasting blood glucose (primary), changes in non-fasting blood glucose measured from the arrival of the animals until one week before the initiation of the study (secondary) and body weight (tertiary). The animals were further divided into two \"teams\" with a pair-fed group (group 2) allocated to team 2. Animals from group 2 were pair-fed in order to compare between the contribution made by reduced food intake and by drug-induced effects on glycemic control. The amount of food eaten by the animals treated with Compound 82 (30 nmol/kg, team 1) each day was determined, and the same amount was given to a vehicle-treated pair-fed group of animals the following day.\nRats were treated for 4 weeks with Compound 82 (3, 30 and 100 nmol/kg, sc, every (ev.) 5th day), Compound 18 (30 nmol/kg sc, every 5th day), or the GLP-1 analogue liraglutide (40 nmol/kg sc, twice daily (bid)).\nThe effects of the compounds on glycemic control were investigated by measurement of non-fasting and fasting blood glucose levels and HbA1c levels.\nStatistical analyses were performed using GraphPad™ Prism version 5. The measured parameters were compared using one- way ANOVA followed by Dunnett's multiple comparison test. Comparison between the pair-fed vehicle-treated group and the Compound 82 (30 nmol/kg) group was done using Student's two-tailed and unpaired t-test. Differences were considered statistically significant at p < 0.05."}, "HFD-fed rats": {"system": "HFD-fed rats", "assay": "Development of obesity in rats fed on a high-fat diet (HFD)", "assay_type": "in vivo, Male Sprague Dawley rats", "protocol": "as §1, §2, §3, §4"}, "Male Sprague Dawley rats [4]": {"system": "Male Sprague Dawley rats", "assay": "Efficacy testing: food preference (FP) and development of obesity in rats fed on a high-fat diet (HFD)", "assay_type": "in vivo", "settings": "rats self-selecting LFD/HFD, 30 nmol/kg sc, QW, 4 weeks", "protocol": "as §1, §5\nStatistical analyses were performed using GraphPad™ Prism version 5.\nThe efficacy of Compound 18 in relation to change in food preference and in relation to the development of obesity were investigated by measurement of food preference, body weight, food intake, water intake, blood glucose levels, plasma insulin levels, mass of liver fat and mass of fat depots."}}, "note": "Numbered stars: 1 amine (or outer) side, 2 acyl side, 3 side chain; on linkers, the order of the positions; unused ones are H or OH. Bridge positions count the residues as written; N and C are the ends. Square brackets hold non-standard residues; d marks the D form. Peptide text beside a SMILES is read from it. * marks the point of attachment. C20 diacid = O=C(O)CCCCCCCCCCCCCCCCCCC(=O)*; γGlu = O=C(O)[C@H](CCC(=O)[*:2])N[*:1]; NMeI = CC[C@H](C)[C@H](NC)C(=O)O; Sar = CNCC(=O)O", "data": [{"smiles": "CC[C@H](C)[C@@H](C(=O)N[C@@H](CC(C)C)C(=O)N[C@@H](CO)C(=O)N[C@@H](CO)C(=O)N[C@H](C(=O)N[C@@H](CC(N)=O)C(=O)N[C@H](C(=O)NCC(=O)N[C@@H](CO)C(=O)N[C@@H](CC(N)=O)C(=O)N[C@H](C(=O)N1CCC[C@H]1C(N)=O)[C@@H](C)O)C(C)C)[C@@H](C)O)N(C)C(=O)[C@H](C)NC(=O)CN(C)C(=O)[C@H](Cc1ccccc1)NC(=O)[C@H](CC(N)=O)NC(=O)[C@H](CC(N)=O)NC(=O)[C@H](CO)NC(=O)[C@H](CO)NC(=O)[C@H](CCCNC(=N)N)NC(=O)[C@H](Cc1c[nH]cn1)NC(=O)[C@H](CC(C)C)NC(=O)[C@H](Cc1ccccc1)NC(=O)[C@H](CCC(=O)O)NC(=O)[C@H](C)NC(=O)[C@H](CC(C)C)NC(=O)[C@H](CCCNC(=N)N)NC(=O)[C@H](CCC(N)=O)NC(=O)[C@@H](NC(=O)[C@H](C)NC(=O)[C@@H]1CSSC[C@H](NC(=O)[C@H](CCCNC(=N)N)NC(=O)CC[C@H](NC(=O)CCCCCCCCCCCCCCCCCCC(=O)O)C(=O)O)C(=O)N[C@@H](CC(N)=O)C(=O)N[C@@H]([C@@H](C)O)C(=O)N[C@@H](C)C(=O)N[C@@H]([C@@H](C)O)C(=O)N1)[C@@H](C)O", "note": "[Compound 18, [19CD]-isoGlu-RC()NTATC()ATQRLAEFLHRSSNNF-Gly(Me)-A-Ile(Me)-LSSTNVGSNTP-NH2] ({C20 diacid-γGlu}-RCNTATCATQRLAEFLHRSSNNF[Sar]A[NMeI]LSSTNVGSNTP-NH2; disulfide 2-7)", "values": [{"measurement": "mass of fat depots", "setting": "Male Sprague Dawley rats [1]; 4 weeks treatment", "value": "decrease"}, {"measurement": "food intake", "setting": "Male Sprague Dawley rats [1]; 4 weeks treatment, vs. vehicle", "value": "significantly decreased"}, {"measurement": "terminal liver fat mass", "setting": "Male Sprague Dawley rats [1]; 5 and 30 nmol/kg, QW, 4 weeks", "value": "decrease"}, {"measurement": "reduction in body weight gain at the end of the study", "setting": "Male Sprague Dawley rats [1]; high-dose group (30 nmol/kg sc, QW), 4 weeks", "value": 26, "unit": "%"}, {"measurement": "caloric intake deriving from LFD", "setting": "[2]", "value": "significant increase in caloric intake deriving from LFD"}, {"measurement": "body weight gain", "setting": "[2]; rats self-selecting LFD/HFD", "value": "reduction of body weight gain"}, {"measurement": "total caloric intake combined from both diets", "setting": "[2]; rats self-selecting LFD/HFD", "value": "a decrease in the total caloric intake"}, {"measurement": "terminal HbA1c levels", "setting": "[3]; 30 nmol/kg sc every 5th day", "value": "5.4 ± 0.1", "unit": "%"}, {"measurement": "non-fasting blood glucose levels on day 13 and on day 27", "setting": "[3]", "value": "significantly lower"}, {"measurement": "fasting blood glucose levels", "setting": "[3]", "value": "significantly decreased"}, {"measurement": "anti-obesity effects with administration every 4th day", "setting": "HFD-fed rats; 5 nmol/kg sc, every 4th day, 4 weeks", "value": "effects similar to those of Compound 18 dosed QW"}, {"measurement": "mass of fat depots", "setting": "HFD-fed rats; 4 weeks treatment", "value": "a decrease in mass of fat depots"}, {"measurement": "food intake", "setting": "HFD-fed rats; 4 weeks treatment, vs. vehicle", "value": "significantly decreased food intake"}, {"measurement": "terminal liver fat mass", "setting": "HFD-fed rats; 5 and 30 nmol/kg, QW, 4 weeks", "value": "a decrease in terminal liver fat mass"}, {"measurement": "body weight gain", "setting": "Male Sprague Dawley rats [4]", "value": "reduction"}, {"measurement": "caloric intake deriving from LFD", "setting": "Male Sprague Dawley rats [4]", "value": "significant increase"}, {"measurement": "terminal blood glucose levels", "setting": "Male Sprague Dawley rats [4]", "value": "unaffected"}, {"measurement": "total caloric intake combined from both diets", "setting": "Male Sprague Dawley rats [4]", "value": "decrease"}]}, {"smiles": "CC[C@H](C)[C@@H](C(=O)N[C@@H](CC(C)C)C(=O)N[C@@H](CO)C(=O)N[C@@H](CO)C(=O)N[C@H](C(=O)N[C@@H](CCC(=O)O)C(=O)N[C@H](C(=O)NCC(=O)N[C@@H](CO)C(=O)N[C@@H](CCC(=O)O)C(=O)N[C@H](C(=O)N1CCC[C@H]1C(N)=O)[C@@H](C)O)C(C)C)[C@@H](C)O)N(C)C(=O)[C@H](C)NC(=O)CN(C)C(=O)[C@H](Cc1ccccc1)NC(=O)[C@H](CO)NC(=O)[C@H](CO)NC(=O)[C@H](CCCNC(=N)N)NC(=O)[C@H](Cc1c[nH]cn1)NC(=O)[C@H](CC(C)C)NC(=O)[C@H](Cc1ccccc1)NC(=O)[C@H](CCC(=O)O)NC(=O)[C@H](C)NC(=O)[C@H](CC(C)C)NC(=O)[C@H](CCCNC(=N)N)NC(=O)[C@H](CCC(N)=O)NC(=O)[C@@H](NC(=O)[C@H](C)NC(=O)[C@@H]1CSSC[C@H](NC(=O)[C@H](CCCNC(=N)N)NC(=O)CC[C@H](NC(=O)CCCCCCCCCCCCCCCCCCC(=O)O)C(=O)O)C(=O)N[C@@H](CC(N)=O)C(=O)N[C@@H]([C@@H](C)O)C(=O)N[C@@H](C)C(=O)N[C@@H]([C@@H](C)O)C(=O)N1)[C@@H](C)O", "note": "[Compound 82, [19CD]-isoGlu-RC()NTATC()ATQRLAEFLHRSSF-Gly(Me)-A-Ile(Me)-LSSTEVGSETP-NH2] ({C20 diacid-γGlu}-RCNTATCATQRLAEFLHRSSF[Sar]A[NMeI]LSSTEVGSETP-NH2; disulfide 2-7)", "values": [{"measurement": "terminal HbA1c levels", "setting": "[3]; 3 nmol/kg sc every 5th day", "value": "5.6 ± 0.2", "unit": "%"}, {"measurement": "terminal HbA1c levels", "setting": "[3]; 30 nmol/kg sc every 5th day", "value": "5.4 ± 0.1", "unit": "%"}, {"measurement": "HbA1c levels compared to the pair-fed group", "setting": "[3]; 30 nmol/kg, P < 0.05", "value": "significant reductions"}, {"measurement": "terminal HbA1c levels", "setting": "[3]; 100 nmol/kg sc every 5th day", "value": "5.4 ± 0.1", "unit": "%"}, {"measurement": "non-fasting blood glucose levels on day 13 and on day 27", "setting": "[3]", "value": "significantly lower"}, {"measurement": "fasting blood glucose levels", "setting": "[3]", "value": "significantly decreased"}]}]}
